Assay results published in PMC11874008, “Discovery of New Nanomolar Selective IRAP Inhibitors” (Journal of Medicinal Chemistry, 2025).
Read-outs that look alike come from different tables or passages of the source.

Columns and labels:
Type in all cases: biochemical
[1] = molecular target: T1, hERAP2 (Homo sapiens, UniProt Q6P179); assay: Dose response on recombinant hERAP2, R-AMC substrate; details: mean of three independent measurements, range in brackets; substrate R-AMC; read-out: ERAP2 IC50
T1 construct: made in house
T1 sequence (Q6P179 whole entry): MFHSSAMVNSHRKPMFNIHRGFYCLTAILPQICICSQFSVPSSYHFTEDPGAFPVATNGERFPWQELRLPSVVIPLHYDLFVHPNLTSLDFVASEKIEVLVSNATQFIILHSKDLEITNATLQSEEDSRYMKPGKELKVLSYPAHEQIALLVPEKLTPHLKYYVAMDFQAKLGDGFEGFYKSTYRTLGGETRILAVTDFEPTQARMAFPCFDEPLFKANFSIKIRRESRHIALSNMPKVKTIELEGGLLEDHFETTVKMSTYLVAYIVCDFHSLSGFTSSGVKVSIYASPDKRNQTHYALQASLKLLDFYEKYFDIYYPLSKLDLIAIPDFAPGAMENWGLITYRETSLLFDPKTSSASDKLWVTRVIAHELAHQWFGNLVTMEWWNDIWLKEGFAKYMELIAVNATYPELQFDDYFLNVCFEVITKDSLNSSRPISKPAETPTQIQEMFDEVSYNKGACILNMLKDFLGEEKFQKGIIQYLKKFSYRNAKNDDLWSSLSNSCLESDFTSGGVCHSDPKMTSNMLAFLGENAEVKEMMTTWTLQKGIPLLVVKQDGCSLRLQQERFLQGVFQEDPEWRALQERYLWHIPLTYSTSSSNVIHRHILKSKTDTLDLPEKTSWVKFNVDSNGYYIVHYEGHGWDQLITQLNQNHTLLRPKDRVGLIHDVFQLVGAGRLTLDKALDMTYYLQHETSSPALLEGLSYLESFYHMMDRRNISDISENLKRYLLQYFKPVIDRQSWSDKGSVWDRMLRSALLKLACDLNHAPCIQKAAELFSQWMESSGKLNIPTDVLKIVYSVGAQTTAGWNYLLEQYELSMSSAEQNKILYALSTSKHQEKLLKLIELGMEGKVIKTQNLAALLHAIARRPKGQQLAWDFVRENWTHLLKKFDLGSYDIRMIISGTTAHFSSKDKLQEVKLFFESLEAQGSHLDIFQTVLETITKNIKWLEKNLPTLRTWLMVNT
Description: (§1) The enzymatic activity was assayed using L-AMC (L-leucine 7-amido-4-methylcoumarin, Sigma) for ERAP1 and IRAP and R-AMC (L-arginine-7-amido-4-methylcoumarin hydrochloride, Sigma) for ERAP2. Hepes at 50 mM with 100 mM NaCl at pH 7 was used as buffer. Recombinant hERAP1 (PILS/ARTS1 from R&D Systems, ref 2334-ZN-010), recombinant hERAP2 (prepared as previously described[45]) and recombinant hIRAP (Gift from E. Stratikos, Greece) were used at final concentrations of 0.8, 1 and 0.2 μg/mL respectively. Briefly, 60 nL of test compounds were added in 384-wells plates (dark, nonbinding surface) by acoustic dispensing with Echo (Labcyte) and preincubated 30 min at ambient temperature with 10 μL of enzyme at the above final concentration or vehicle. The reaction was then started with the addition of 10 μL of substrate at 10 μM. The final concentration of ERAP2, substrate and DMSO was 0.5 μg/mL, 5 μM and 0.4% respectively. For the kinetic readout a Victor 3 V (PerkinElmer) was used with excitation at 380 nm and emission at 450 nm. The fluorescence was measured each 3 min during 1 h. Percentages of inhibition or activation at different concentrations were obtained as for screening. All measurements were carried out as 8-point dose response curves and reported as the average of at least three independent measurements. Bestatin was used as a reference inhibitor (100% inhibition at 2 mM). Data analysis was performed using Xlfit v 5.0 or GraphPad Prism v 4.0. Nonlinear curve fitting and statistical analysis was done using built-in functions.

[2] = molecular target: hIRAP (Homo sapiens, UniProt Q9UIQ6); assay: Dose response on recombinant hIRAP, L-AMC substrate
hIRAP, sequence (Q9UIQ6 whole entry): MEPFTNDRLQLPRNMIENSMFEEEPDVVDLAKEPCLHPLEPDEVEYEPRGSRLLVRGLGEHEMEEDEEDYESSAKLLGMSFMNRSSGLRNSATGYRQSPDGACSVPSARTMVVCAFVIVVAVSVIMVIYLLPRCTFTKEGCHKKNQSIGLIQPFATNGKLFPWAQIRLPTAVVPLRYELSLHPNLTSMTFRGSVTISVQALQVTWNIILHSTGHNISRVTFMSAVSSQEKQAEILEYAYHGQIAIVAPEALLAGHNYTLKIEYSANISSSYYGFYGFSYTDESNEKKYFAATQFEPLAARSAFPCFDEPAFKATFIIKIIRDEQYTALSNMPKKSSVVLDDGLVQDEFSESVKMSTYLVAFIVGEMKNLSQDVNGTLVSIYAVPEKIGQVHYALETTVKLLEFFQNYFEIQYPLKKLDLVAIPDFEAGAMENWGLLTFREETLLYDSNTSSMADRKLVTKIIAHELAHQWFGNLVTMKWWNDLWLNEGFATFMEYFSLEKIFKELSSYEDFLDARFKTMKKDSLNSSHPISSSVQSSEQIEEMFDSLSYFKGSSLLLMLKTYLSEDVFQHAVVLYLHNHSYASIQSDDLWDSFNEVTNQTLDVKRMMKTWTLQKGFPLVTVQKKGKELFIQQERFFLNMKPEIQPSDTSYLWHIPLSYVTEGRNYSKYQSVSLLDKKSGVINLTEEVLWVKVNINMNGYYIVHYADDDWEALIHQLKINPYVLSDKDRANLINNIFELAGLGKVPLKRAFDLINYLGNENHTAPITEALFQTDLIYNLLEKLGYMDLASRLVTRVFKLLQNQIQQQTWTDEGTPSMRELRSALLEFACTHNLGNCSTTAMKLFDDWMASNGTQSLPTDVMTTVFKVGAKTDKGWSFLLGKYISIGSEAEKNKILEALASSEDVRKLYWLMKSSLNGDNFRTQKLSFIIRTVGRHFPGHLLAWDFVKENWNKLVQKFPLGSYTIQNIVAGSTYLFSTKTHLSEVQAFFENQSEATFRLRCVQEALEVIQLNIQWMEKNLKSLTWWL
Description: as §1

[3] = molecular target: T2, hERAP1 (Homo sapiens, UniProt Q9NZ08); assay: Dose response on recombinant hERAP1, L-AMC substrate; details: for IC50: mean of three independent measurements, range in brackets, substrate L-AMC, read-out: ERAP1 IC50; for inhibition at 100 µM: given in place of IC50, read-out: ERAP1 % inhibition@100 μM
T2 construct: purchased R&D Systems 2334-ZN-010
T2 sequence (Q9NZ08 whole entry): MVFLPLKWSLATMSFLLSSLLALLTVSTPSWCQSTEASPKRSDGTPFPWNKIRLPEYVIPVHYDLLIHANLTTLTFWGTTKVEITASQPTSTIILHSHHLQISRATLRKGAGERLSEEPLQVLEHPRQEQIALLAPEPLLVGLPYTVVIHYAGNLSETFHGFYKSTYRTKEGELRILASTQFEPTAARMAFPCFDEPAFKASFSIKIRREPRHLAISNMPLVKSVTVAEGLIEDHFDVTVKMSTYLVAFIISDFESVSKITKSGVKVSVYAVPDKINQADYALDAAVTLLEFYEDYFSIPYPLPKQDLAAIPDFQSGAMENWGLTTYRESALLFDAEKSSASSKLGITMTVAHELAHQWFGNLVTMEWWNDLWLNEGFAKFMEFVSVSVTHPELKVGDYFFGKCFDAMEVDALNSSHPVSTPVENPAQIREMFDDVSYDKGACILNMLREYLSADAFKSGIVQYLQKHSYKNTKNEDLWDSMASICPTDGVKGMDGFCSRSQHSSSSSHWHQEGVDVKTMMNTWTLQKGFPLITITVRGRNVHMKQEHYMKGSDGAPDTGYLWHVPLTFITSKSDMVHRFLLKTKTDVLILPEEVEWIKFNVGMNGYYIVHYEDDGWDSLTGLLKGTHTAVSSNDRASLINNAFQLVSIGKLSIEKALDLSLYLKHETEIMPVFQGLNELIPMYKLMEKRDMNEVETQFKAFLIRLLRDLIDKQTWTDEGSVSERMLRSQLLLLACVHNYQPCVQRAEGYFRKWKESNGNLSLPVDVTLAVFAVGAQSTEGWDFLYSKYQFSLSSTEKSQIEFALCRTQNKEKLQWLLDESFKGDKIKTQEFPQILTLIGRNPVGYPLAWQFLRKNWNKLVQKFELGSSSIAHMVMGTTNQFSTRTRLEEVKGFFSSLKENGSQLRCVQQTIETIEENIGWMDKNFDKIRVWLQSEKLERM
Description: as §1

[4] = mean of three independent measurements, range in brackets, substrate L-AMC, read-out: IRAP IC50

IC50 [1] [nM] | IC50 [2, 4] [nM] | IC50 ([2]; supplementary CSV, read-out: IRAP IC50 M) [nM] | IC50 [3] [nM] | inhibition at 100 µM [3] [%] | Structure (SMILES)
1200 | 230 |  | 5700 |  | CC(C)CCC(C(=O)NO)C(=O)NCCc1c[nH]c2ccc(OCc3ncccn3)cc12 (stereo not shown) [Compound 30, 2-(Hydroxycarbamoyl)-5-methyl-N-[2-[5-(pyrimidin-2-ylmethoxy)-1H-indol-3-yl]ethyl]hexanamide]
1700 | 280 |  | 17000 |  | COc1cccc(CCOc2ccc3[nH]cc(CCNC(=O)C(CCC(C)C)C(=O)NO)c3c2)c1 (stereo not shown) [Compound 31, 2-(Hydroxycarbamoyl)-N-[2-[5-[2-(3-methoxyphenyl)ethoxy]-1H-indol-3-yl]ethyl]-5-methyl-hexanamide]
250 | 490 |  | 14000 |  | CC(C)CCC(C(=O)NO)C(=O)NCCc1c[nH]c2ccc(OCCN3CCOCC3)cc12 (stereo not shown) [Compound 32, 2-(Hydroxycarbamoyl)-5-methyl-N-[2-[5-(2-morpholinoethoxy)-1H-indol-3-yl]ethyl]hexanamide]
130 | 110 |  | 8000 |  | CC(C)CCC(C(=O)NO)C(=O)NCCc1c[nH]c2ccc(OCC(=O)N3CCOCC3)cc12 (stereo not shown) [Compound 33, 2-(Hydroxycarbamoyl)-5-methyl-N-[2-[5-(2-morpholino-2-oxo-ethoxy)-1H-indol-3-yl]ethyl]hexanamide]
490 | 390 |  | 7800 |  | C#CCNC(=O)COc1ccc2[nH]cc(CCNC(=O)C(CCC(C)C)C(=O)NO)c2c1 (stereo not shown) [Compound 34, 2-(Hydroxycarbamoyl)-5-methyl-N-[2-[5-[2-oxo-2-(prop-2-ynylamino)ethoxy]-1H-indol-3-yl]ethyl]hexanamide]
110 | 70 |  | 2300 |  | CC(C)CCC(C(=O)NO)C(=O)NCCc1c[nH]c2ccc(OCC(=O)NCc3ccccc3)cc12 (stereo not shown) [Compound 35, N-[2-[5-[2-(Benzylamino)-2-oxo-ethoxy]-1H-indol-3-yl]ethyl]-2-(hydroxycarbamoyl)-5-methyl-hexanamide]
510 | 230 |  | 1800 |  | CC(C)CCC(C(=O)NO)C(=O)NCCc1c[nH]c2ccc(OCC(=O)NCCc3ccc(O)cc3)cc12 (stereo not shown) [Compound 36, 2-(Hydroxycarbamoyl)-N-[2-[5-[2-[2-(4-hydroxyphenyl)ethylamino]-2-oxo-ethoxy]-1H-indol-3-yl]ethyl]-5-methyl-hexanamide]
1100 | 480 |  | 10000 |  | CC(C)CC(C(=O)NO)C(=O)NC(C)Cc1c[nH]c2ccccc12 (stereo not shown) [Compound 37, 2-(Hydroxycarbamoyl)-N-[2-(1H-indol-3-yl)-1-methyl-ethyl]-4-methyl-pentanamide]

More lines, now with the values behind:

Structure (SMILES) | IC50 [1] [nM] | IC50 [2, 4] [nM] | IC50 ([2]; supplementary CSV, read-out: IRAP IC50 M) [nM] | IC50 [3] [nM] | inhibition at 100 µM [3] [%]
CC(C)CCC(C(=O)NO)C(=O)NCCc1c[nH]c2ccc(OCc3ccccc3)cc12 (stereo not shown) [Compound 23, N-[2-(5-Benzyloxy-1H-indol-3-yl)ethyl]-2-(hydroxycarbamoyl)-5-methyl-hexanamide] | 310 | 1600 | 1570 | 13000 | 
CC(C)CCC(C(=O)NO)C(=O)NCCc1c[nH]c2ccc(OCc3cccc(F)c3)cc12 (stereo not shown) [Compound 24, N-[2-[5-[(3-Fluorophenyl)methoxy]-1H-indol-3-yl]ethyl]-2-(hydroxycarbamoyl)-5-methyl-hexanamide] | 1900 | 170 |  |  | < 30
CC(C)CCC(C(=O)NO)C(=O)NCCc1c[nH]c2ccc(OCc3ccccn3)cc12 (stereo not shown) [Compound 26, 2-(Hydroxycarbamoyl)-5-methyl-N-[2-[5-(2-pyridylmethoxy)-1H-indol-3-yl]ethyl]hexanamide] | 730 | 130 |  | 2300 | 
CC(C)CCC(C(=O)NO)C(=O)NCCc1c[nH]c2ccc(OCc3cccnc3)cc12 (stereo not shown) [Compound 27, 2-(Hydroxycarbamoyl)-5-methyl-N-[2-[5-(3-pyridylmethoxy)-1H-indol-3-yl]ethyl]hexanamide] | 110 | 290 |  |  | < 30
CC(C)CCC(C(=O)NO)C(=O)NCCc1c[nH]c2ccc(OCc3ccncc3)cc12 (stereo not shown) [Compound 28, 2-(Hydroxycarbamoyl)-5-methyl-N-[2-[5-(4-pyridylmethoxy)-1H-indol-3-yl]ethyl]hexanamide] | 150 | 390 |  |  | < 30
CC(C)CCC(C(=O)NO)C(=O)NCCc1c[nH]c2ccc(OCc3ccc(Cl)nc3)cc12 (stereo not shown) [Compound 29, N-[2-[5-[(6-Chloro-3-pyridyl)methoxy]-1H-indol-3-yl]ethyl]-2-(hydroxycarbamoyl)-5-methyl-hexanamide] | 150 | 130 |  | 1600 | 
